Assay results as given in patent US20210388012A1, “METHODS AND COMPOSITIONS FOR PRODRUG FORMS OF SPECTINOMYCIN AND SPECTINAMIDE ANALOGS” (priority 2018, published 2021).

Columns and labels:
M. tuberculosis H37Rv = assay: Minimum inhibitory concentration (MIC), microbroth dilution; assay type: cell-based; details: Mycobacterium tuberculosis, H37RV, 168 h, read-out: MIC (H37Rv)
[1] = Metabolic stability, human liver microsomal degradation; assay type: in vitro ADME; details: human liver microsomes; read-out: Metabolic Stability (Human) t½ (converted)
Experimental: LC-MS Method 2. Chromatographic separation was performed on an Acquity UPLC BEH C18 1.7 μm, 2.1×50 mm column (Waters Corporation, Milford, Mass.) or a Luna Omega 1.6 μm C18, 2.1×50 mm column (Phenomenex, Torrance, Calif.) using an Acquity ultra performance liquid chromatography system. Data were acquired using Masslynx v. 4.1 and analyzed using the Openlynx software suite. This was coupled to an Acquity photodiode array detector, which acquired UV data from 210-400 nm. The flow was then split, with half directed to an evaporative light scattering detector (ELSD) and half to an SQ mass spectrometer. The total flow rate was 1 mL/min. The sample injection volume was 10 μL. The UPLC column was maintained at 60° C. and the gradient program with either basic mobile phase (A1, 10 mM ammonium bicarbonate in MilliQ H2O; B1, 0.1% formic acid in acetonitrile) or formic mobile phase (A1, 0.1% formic acid in MilliQ H2O; B1, 0.1% formic acid in acetonitrile) based on the compounds' physical and chemical properties. The mass spectrometer was operated in positive-ion mode with electrospray ionization. The conditions were as follows; capillary voltage 3.4 kV, cone voltage 30 V, source temperature 130° C., desolvation temperature 400° C., desolvation gas 800 L/hr, cone gas 100 L/hr. A full scan range from m/z=110-1000 in 0.2 s was used to acquire MS data. The ELSD-drift tube temperature was set at 52° C.
The stability of compounds to human liver microsomal degradation, i.e., metabolic stability, was determined as described previously (see North, E. J., et al, Bioorg. Med. Chem. (2013) 21(9):2587-2599) and the rate of degradation was monitored by LC-MS analysis using multiple sampled time points as described herein above in LC-MS Method 2. Metabolic stability was evaluated via the half-life from least squares fit of the concentration remaining at the time points based on first-order kinetics.

[2] = Pharmacokinetic study in rat; assay type: in vivo, Sprague-Dawley rats; details: intravenous
Experimental: (§1) LC-MS Method 1. Quantitative determination of the amount of a disclosed compound present in blood, plasma, or urinary can be determined by LC-MS/MS methods. Briefly, a suitable method involves use of calibrants (0.976, 1.95, 3.91, 7.81, 15.63, 31.25, 62.5, 125, 250, 500, 1000 ng/mL) were in sample matrix (e.g., rat plasma, blood or urine). A separate solution of disclosed compound (independent of calibrants) is used to prepare quality controls. Appropriate volumes of working solutions are added to the sample matrix to yield the final concentrations of 1, 50, 1000 ng/mL. Linearity for calibrants in duplicate is assessed by subjecting the spiked concentrations and the respective peak areas to least-square linear regression analysis with and without intercepts, and a weighted least-square regression (1/x or 1/x^2). The lowest limit of quantitation (LLOQ) in the standard curve measured with acceptable accuracy and precision for a disclosed compound from rat plasma has been previously established as 0.976 ng/mL for a representative compound, 1810. All samples are precipitated by the addition of 4-volumes (100 μL) of IS, 1369 (10 ng/mL) in methanol to a volume (25 μL) of plasma/urine test sample. The samples are vortexed (Fisher scientific, USA) for 30 sec and centrifuged at 10,000×g for 10 min at 4° C. and the supernatants are collected for LC-MS/MS analysis. Chromatographic separation is carried out using a Shimadzu Nexera XR (LC-20ADXR) liquid chromatograph (Shimadzu Corporation, USA) consisting of two pumps, online degasser, system controller and an auto sampler. Mobile phase consisting of a) water with 1.6% nonafluoropentanoic acid and 0.7% formic acid b) 90% acetonitrile with 0.8% nonafluoropentanoic acid and 0.35% formic acid can be used at a flow rate of 0.5 rnLirnin in gradient mode. A Waters® Symmetry ® 3.5μ C8, 50×2.1 mm column (Waters, Milford, Mass.) is used for the separation. Samples (5 μL) are injected on column and the eluate is provided directly to an API 5500 triple quadruple mass spectrometer (Applied Biosystems, Foster City, Calif.) equipped with a turbospray ion source operated in the positive ion mode. The optimized multiple reactions monitoring (MRM) conditions for 3408 (549.2A207.1), 1810 (469.2^207.1) and IS (418.3^207.1) are monitored with a declustering potential of 45 V and collision energy of 25 eV. Data are acquired and processed with Analyst software version 1.6.2 (Applied Biosystems, Foster City, Calif.).
Pharmacokinetic assessment of the disclosed compounds can be determined in a rat model as described herein. Briefly, catheterized male Sprague-Dawley rats from Harlan Bioscience (Indianapolis, Ind.), weighing 200-250 g, are kept at a 12 h light/dark cycle with access to food and water ad libitum. The procedures are approved by the Institutional Animal Care and Use Committee of the University of Tennessee Health Science Center. Formulations of a disclosed compound are prepared in water (50%) and PlasniaLyte A (50%). Test compound can be administered either via intravenous route (10 mg/kg) via femoral vein catheter with the study conducted using a group of 6 rats. Blood (250 μL) was collected via the jugular vein catheter at 0.08, 0.25, 0.5, 0.75, 1, 1.5, 2, 4, 6, 8, 10, 24 and 48 h after drug administration. Plasma was immediately separated by centrifugation (6,000×g for 10 min at 4° C.) and stored at −70° C. until analysis. The plasma concentration was determined as described herein above in LC-MS Method 1, and plasma concentration-time courses were fitted to a non-compartmental model using Phoenix WinNonlin 7.0 (Certara L. P., Princeton, NJ). Area under the concentration-time profile curve (AUC) was calculated by the log trapezoidal rule by log-linear regression and extrapolated to infinity by addition of the value Ct/λZ, where Ct is the concentration at the last time point, and λZ the terminal slope (determined by linear regression) of the log concentration-time curve. […]

[3] = PlasmaLyte A stability study; assay type: physicochemical; details: room temperature; for % remaining: 10 mg/mL in PlasmaLyte A and milli-Q water (50:50)
Experimental: as §1
Stability of compound 3408 was determined in a mixture of PlasmaLyte A and milli-Q water (50:50) at room temperature. Briefly, a 10 mg/mL solution of compound 3408 was prepared in triplicate and samples were collected (0, 1, 2, 3, 4, 5, 6 h). These samples were processed by addition of 4-volumes of methanol and quantitated by LC-MS/MS method disclosed herein in LC-MS Method 1. The percentage drug remaining at each hour was calculated with respect to the concetration at the initial time point.

## CN[C@@H]1[C@H](O)[C@H](NC)[C@H]2O[C@]3(O)[C@H](O[C@@H]2[C@H]1O)O[C@H](C)C[C@H]3NC(=O)Cc1ccc(OP(=O)(O)O)cn1 [Compound 3408, 6-(2-oxo-2-(((2R,4R,4a5,5aR,6S,7S,8R,9S,9aR,10aS)-4a,7,9-trihydroxy-2-methyl-6,8-bis(methylamino)decahydro-2H-benzo[b]pyrano[2,3-e][1,4]dioxin-4-yl)amino)ethyl)pyridin-3-yl dihydrogen phosphate]
M. tuberculosis H37Rv
  MIC: 100 µg/mL
[1]
  half-life: < 5 min
[2]
  In vivo conversion of prodrug to parent (in words): rapidly converted in vivo to the parent drug form
[3]; hour 0
  % remaining: 100%
[3]; hour 1
  % remaining: 103%
[3]; hour 2
  % remaining: 101%
[3]; hour 3
  % remaining: 105%
[3]; hour 4
  % remaining: 104%
[3]; hour 5
  % remaining: 104%
[3]; hour 6
  % remaining: 104%
[3]; 10 mg/mL in Plasmalyte A and milli-Q water mixture (50:50)
  time stable in solution: at least 6 hours
